Laboratory results published in patent US20240368230A1, “CELL-PENETRATING PEPTIDES COMPRISING MULTIPLE 5-MER ALPHA-HELIX FRAGMENTS AND USES THEREOF” (ArtProBio Co., Ltd., priority 2023, published 2024).
Entries after “also recorded” stand apart in the source; their conditions may differ. Where two headings read alike, the source gives them in different places. Where a SMILES comes first, the peptide text is derived from it.

Legend:
[1] = system: BALB/c nude mice; assay: In-vivo fluorescence imaging (IVIS) of living mice, targeting
Protocol: All animal experimental procedures including sample administration and euthanasia were performed in accordance with the strict guidelines of the Yonsei University Health System Institutional Animal Care and Use Committee. Female 7-week BALB/c nude mice were purchased from Orient Bio Company (Korea). Fluorescence-labeled peptide (sample) (10 mg/kg) was injected via the lateral tail vein of the mice. Fluorescence images were acquired at different times (0, 4, 8 and 12 hours) using an in-vivo imaging system (IVIS; PerkinElmer, USA) and the images were analyzed with the Living Image software (PerkinElmer).
Female 7-week-old BALB/c nude mice were injected IV (intravenously) with the cell-penetrating peptide prepared in Example 10 (CPP10) at 10 mg/kg or 1 mg/kg via the lateral tail vein and imaged using IVIS (in-vivo imaging system) (PerkinElmer, USA) 4 hours later. The images were analyzed with the Living Image software (PerkinElmer). The mice were analyzed from the top, bottom (belly) and side positions (FIG. 44A). Then, after administering the same volume of the cell-penetrating peptide prepared in Example 10 (CPP10) at 10 mg/kg via IV (intravenous) or IP (intraperitoneal) injection, the mice were imaged 4 hours later (FIG. 44B).
Next, female 7-week-old BALB/c nude mice were injected IV (intravenously) with the cell-penetrating peptide of Example 10 (CPP10), the cell-penetrating peptide of Example 11 (CPP11) or the cell-penetrating peptide of Example 14 (CPP11d) at 10 mg/kg via the lateral tail vein, and they were imaged 30 minutes and 6 hours later using IVIS (in-vivo imaging system) (PerkinElmer, USA). The images were analyzed with the Living Image software (PerkinElmer) (FIG. 44C). In FIGS. 44A and 44B, the cell-penetrating peptides were labeled with TAMRA (5 (6)-carboxytetramethylrhodamine). In FIG. 44C, the cell-penetrating peptides were labeled with FAM.
The images were analyzed with the Living Image software (PerkinElmer) (FIGS. 50 and 51).
The cell-penetrating peptide prepared in Example 11 (CPP11) was also administered at the same concentration and then analyzed by IVIS 1 hour later (FIG. 51). The cell-penetrating peptide was used after labeling with FAM.
4 hours later, the mice were imaged using IVIS (in-vivo imaging system) (PerkinElmer, USA) and the images were analyzed with the Living Image software (PerkinElmer) (FIG. 53).
The cell-penetrating peptide prepared in Example 11 (CPP11) was also administered at the same concentration and then analyzed by IVIS 1 hour later (FIG. 53). The cell-penetrating peptide was used after labeling with FAM.
Female 7-week-old BALB/c nude mice were injected IV (intravenously) with 200 μL of the cell-penetrating peptide of Example 11 (CPP11) or the existing cell-penetrating peptides (Rev ARM, Tat, penetratin and R8) at 5 mg/kg via the lateral tail vein. 4 hours later, the mice were imaged using IVIS (in-vivo imaging system) (PerkinElmer, USA) and the images were analyzed with the Living Image software (PerkinElmer) (FIGS. 54 and 55). The cell-penetrating peptides were used after labeling with FAM.

[2] = CD spectroscopy of cell-penetrating peptides (helicity); details: for secondary structure / helix stabilization by CD: 10 mM potassium phosphate, pH 7.4, 20° C.
Protocol: The concentration of peptides/proteins was 5-20 μM in general. Spectra were obtained using a Jasco J-1500 CD spectrometer (JASCO, Japan) or a Chirascan CD spectrometer (Applied Photophysics, UK). Scanning was carried out using a cuvette with a path length of 1 mm. MRE (mean residue ellipticity) was calculated per amino acid residue.
The cell-penetrating peptides (CPP1 TO 13 and CPP11d) were dissolved respectively in 10 mM potassium phosphate. The analysis was performed under the condition of pH 7.4 and 20° C.

[3] = system: HeLa cells
Protocol: (§3) Cytotoxicity was analyzed using the WST-8 (5-(2,4-disulfophenyl)-3-(2-methoxy-4-nitrophenyl)-2-(4-nitrophenyl)-2H-tetrazolium, water-soluble tetrazolium). First, HeLa cells were inoculated onto a 96-well plate (5,000 cells/well) and cultured for 24 hours in a DMEM medium containing 10% FBS. After washing with PBS, the peptide (sample) of various concentrations was added to Opti-MEM. 24 hours later, the WST-8 reagent was added and incubation was conducted for 1 hour. Then, WST-8 formazan was quantified using a Victor X5 multilabel plate reader (Perkin Elmer, USA).

[4] = system: HCT116 cells; assay: Flow cytometry cellular uptake efficiency, HCT116; format: cell-based; details: HCT116, 30 μM, FAM-labeled
Protocol: (§1) After washing with PBS, the cells were treated with the fluorescence-labeled peptide (sample) for 4 hours. Then, after washing twice with PBS, the cells were incubated with trypsin (1 mg/mL) for 15 minutes and the peptide bound to the cell surface was removed. The cells were centrifuged at 1,200 rpm for 5 minutes, washed twice with PBS and then suspended in a PBS buffer containing 10% non-enzymatic cell dissociation solution. The fluorescence intensity of the internalized peptide was measured using a BD LSR II flow cytometer (BD Biosciences, USA).
(§2) The cell-penetrating peptides (CPP10, CPP11 and Tat) were labeled with FAM (5 (6)-carboxyfluorescein) at the N-terminal. MFI stands for mean fluorescence intensity. Untreated cells were used as control groups (cell only). The cellular uptake efficiency refers to the degree of penetration into cells.

[5] = system: 293T cells; assay: Flow cytometry cellular uptake efficiency, 293T; format: cell-based; details: 30 μM, FAM-labeled
Protocol: as §1, §2

[6] = system: HeLa cells; assay: Cytotoxicity analysis with WST-8 reagent; details: 24 hours, various concentrations
Protocol: as §3

[7] = system: HeLa cells; assay: Flow cytometry cellular uptake efficiency, HeLa; format: cell-based
Protocol: as §1, §2
Flow cytometry was performed after treating Hela cells with the cell-penetrating peptide prepared in Example 11 (CPP11) of different concentrations (4 μM, 30 μM, 60 μM, 90 μM, 120 μM, 270 μM and 500 μM).

[8] = system: IIB RNA; assay: UV melting analysis of IIB RNA and cRev-IIB complex; format: physicochemical, HIV-1; details: 260 nm; cRev/IIB ratio 1; IIB RNA only as control
Protocol: UV melting experiments for free RNA (2 μM) and a protein-RNA complex (1:1 molar ratio) were conducted using an Agilent 8453 diode array UV-Vis spectrophotometer equipped with a Peltier temperature controller. Spectra were measured at 260 nm using a cuvette with a path length of 1 cm under the heating rate condition of 2° C./min. The measurement was repeated 3 times and the average was taken. Prior to the measurement, the RNA sample was heated at 90° C. for 2 minutes and then annealed on ice. The melting temperature (Tm) was calculated with the Origin software (OriginLab, USA) using a two-state or multi-state model.
A complex (cRev-IIB complex) was prepared by mixing the cRev prepared in Preparation Example 2 with IIB RNA and UV melting experiment was performed. The cRev/IIB ratio was 1. For the control group (IIB RNA only), only IIB RNA was used without cRev.

[9] = CD equilibrium thermal unfolding; format: physicochemical; details: CD at 4-84° C., two-state coil-helix transition
Protocol: For the cell-penetrating peptide prepared in Example 11 (CPP11), CD spectra were measured under various temperature conditions (4° C., 20° C., 36° C., 52° C., 68° C. and 84° C.) to analyze thermal stability through equilibrium thermal unfolding.

[10] = system: BALB/c nude mice; assay: IVIS imaging of extracted organs, head and cochlea after IV injection; format: in vivo
Protocol: After extracting major organs (ear, brain, heart, lung, liver, spleen and kidney) from the euthanized experimental animals, the tissues were imaged using IVIS (in-vivo imaging system) (PerkinElmer, USA) and the images were analyzed with the Living Image software (PerkinElmer).

[11] = system: HeLa cells; assay: Cellular localization by CLSM; format: cell-based; details: 10 μM FAM-labeled, 2 hours, DAPI
Protocol: A DMEM medium containing 10% FBS and an 8-well Lab-Tek II chamber slide (Thermo Fisher Scientific, USA) were prepared. […] […] The cultured cells were washed 5 times with PBS. The living cells were visualized using an LSM 880 confocal microscope (Carl Zeiss, Germany).
The cell-penetrating peptides were labeled with FAM.

[12] = FAM-labeled, IV 10 mg/kg, 30 minutes and 6 hours
[13] = extracted organs, IV 10 mg/kg, 4 hours

## UaUgarrnUaUqarrnUaUqarrnUaUqarrnUaU [CPP11d]
[1]; mouse, in vivo, iv, 10 mg/kg
  in-vivo targeting site: targeted the ear
[2]
  secondary structure / helix stabilization by CD: perfect left-handed helical conformation
[3]
  cytotoxicity (WST-8): hardly show cytotoxicity

## C[C@H](NC(=O)[C@H](CCC(N)=O)NC(=O)C(C)(C)NC(=O)[C@H](C)NC(=O)C(C)(C)NC(=O)[C@H](CC(N)=O)NC(=O)[C@H](CCCNC(=N)N)NC(=O)[C@H](CCCNC(=N)N)NC(=O)[C@H](C)NC(=O)[C@H](CCC(N)=O)NC(=O)C(C)(C)NC(=O)[C@H](C)NC(=O)C(C)(C)NC(=O)[C@H](CC(N)=O)NC(=O)[C@H](CCCNC(=N)N)NC(=O)[C@H](CCCNC(=N)N)NC(=O)[C@H](C)NC(=O)[C@H](CCC(N)=O)NC(=O)C(C)(C)NC(=O)[C@H](C)NC(=O)C(C)(C)N)C(=O)N[C@@H](CCCNC(=N)N)C(=O)N[C@@H](CCCNC(=N)N)C(=O)N[C@@H](CC(N)=O)C(=O)NC(C)(C)C(=O)N[C@@H](C)C(=O)NC(C)(C)C(N)=O [CPP10] (HELM PEPTIDE1{[Aib].A.[Aib].Q.A.R.R.N.[Aib].A.[Aib].Q.A.R.R.N.[Aib].A.[Aib].Q.A.R.R.N.[Aib].A.[Aib].[am]}$$$$V2.0; N-terminus assumed)
[4]
  cell-penetrating ability compared with Tat: significantly superior
[1]; [12]
  in-vivo targeting site: targeted the ear
[1]; TAMRA-labeled, 10 mg/kg, 4 hours
  targeting efficiency IV versus IP: higher targeting efficiency when administered by IV injection rather than by IP injection
[1]; TAMRA-labeled, IV tail vein, 10 mg/kg or 1 mg/kg, 4 hours
  in-vivo fluorescence distribution: bright fluorescence was observed in the ear
[5]
  cell-penetrating ability compared with Tat: significantly superior
[2]
  secondary structure / helix stabilization by CD: significantly higher than those of CPP8 and CPP9
[6]
  cytotoxicity (WST-8): hardly show cytotoxicity
[7]; HeLa, 30 μM, FAM-labeled
  cell-penetrating ability compared with Tat: significantly superior

## GGACCUGGUAUGGGCGCAGCGCAAGCUGACGGUACAGGCCAGGUCC (listed as RNA, chemistry not given here) [IIB RNA, stem-loop IIB region of HIV-1 RRE RNA]
[8]
  Tm (UV melting): 60.6 °C

## C[C@H](NC(=O)[C@H](CCC(N)=O)NC(=O)C(C)(C)NC(=O)[C@H](C)NC(=O)C(C)(C)NC(=O)[C@H](CC(N)=O)NC(=O)[C@H](CCCNC(=N)N)NC(=O)[C@H](CCCNC(=N)N)NC(=O)[C@H](C)NC(=O)[C@H](CCC(N)=O)NC(=O)C(C)(C)NC(=O)[C@H](C)NC(=O)C(C)(C)NC(=O)[C@H](CC(N)=O)NC(=O)[C@H](CCCNC(=N)N)NC(=O)[C@H](CCCNC(=N)N)NC(=O)[C@H](C)NC(=O)[C@H](CCC(N)=O)NC(=O)C(C)(C)NC(=O)[C@H](C)NC(=O)C(C)(C)NC(=O)[C@H](CC(N)=O)NC(=O)[C@H](CCCNC(=N)N)NC(=O)[C@H](CCCNC(=N)N)NC(=O)[C@H](C)NC(=O)[C@H](CCC(N)=O)NC(=O)C(C)(C)NC(=O)[C@H](C)NC(=O)C(C)(C)N)C(=O)N[C@@H](CCCNC(=N)N)C(=O)N[C@@H](CCCNC(=N)N)C(=O)N[C@@H](CC(N)=O)C(=O)NC(C)(C)C(=O)N[C@@H](C)C(=O)NC(C)(C)C(N)=O [CPP11] (HELM PEPTIDE1{[Aib].A.[Aib].Q.A.R.R.N.[Aib].A.[Aib].Q.A.R.R.N.[Aib].A.[Aib].Q.A.R.R.N.[Aib].A.[Aib].Q.A.R.R.N.[Aib].A.[Aib].[am]}$$$$V2.0; N-terminus assumed)
[4]; 4 hours, MFI
  cellular uptake efficiency relative to Tat: ≥ 4 times
[1]; FAM-labeled, IV 5 mg/kg, 1 hour, compared with CPP14, 15 and 17
  accumulation efficiency in the ear: much higher accumulation efficiency in the ear
[1]; FAM-labeled, IV 5 mg/kg, 4 hours, comparison with existing CPPs
  bioaccumulation: accumulated in the ear tissue at a significantly high level
[1]; [12]
  in-vivo targeting site: targeted the ear
[5]; 4 hours, MFI
  cellular uptake efficiency relative to Tat: ≥ 4 times
[9]
  melting temperature (CD thermal unfolding): 39.4 °C
[10]; IV 10 mg/kg
  time to accumulation in the ear: ≤ 4 h
[10]; IV 10 mg/kg, 4 hours
  excretion route: excreted out of the body through the liver and kidneys
[10]; IV 10 mg/kg, 4 hours, versus PBS, 10 mg/kg
  accumulation in the head (outside and inside): accumulated effectively in the facial area, especially in the ear, in large quantities; also recorded: accumulated deeply not only in the ear but also in the nose
[10]; [13]
  accumulation in heart, lung and spleen: not accumulated in the heart, lung and spleen tissues
  accumulation rate in the brain: very low
  main target organ: targets mainly the ear
[10]; separated cochlea, IV, versus PBS (w/o treatment)
  accumulation in the inner ear (cochlea): significantly remarkable accumulation in the inner ear (cochlea)
[11]
  cellular localization: mainly located outside the nucleus
[2]
  secondary structure / helix stabilization by CD: perfect α-helical structure
[2]; 5-200 μM, 20° C.
  dependence of [θ]222/[θ]208 on concentration: not affected by concentration
[6]
  cytotoxicity (WST-8): hardly show cytotoxicity
[7]; HeLa, 30 μM, 4 hours, FAM-labeled, MFI
  cellular uptake efficiency relative to Tat: ≥ 4 times
[7]; Hela cells, 4-500 μM
  MFI / uptake efficiency versus concentration: uptake efficiency increases gradually with the concentration
